{"source": "patent US20240228535A1", "about": "(priority 2022, published 2024)"}
{"biological_target": "SARS2 coronavirus 3CL protease (Severe acute respiratory syndrome coronavirus 2, UniProt P0DTD1)", "assay": "biochemical", "conditions": "5 nM enzyme, 30 min pre-incubation with compound, 15 μM peptide substrate, 4 h at room temperature; read-out: FRET Potency (nM); IC50 values in the SARS2 3CLPro FRET assay", "units": {"IC50": "nM"}}
{"compound": "CNC(=O)C(=O)[C@H](C[C@@H]1C[C@@H](C)NC1=O)NC(=O)c1cc(Cl)ccc1NC(=O)C1CCC(F)(F)CC1", "note": "[Example 197]", "IC50": 9.4}
{"compound": "CNC(=O)C(=O)[C@H](C[C@@H]1C[C@@H](C)NC1=O)NC(=O)c1cc(Cl)ccc1NC(=O)OC1CCC(F)(F)C1", "note": "(stereo partly drawn) [Example 200, (3,3-difluorocyclopentyl) N-[4-chloro-2-[[(1S)-3-(methylamino)-1-[[(3S,5R)-5-methyl-2-oxo-pyrrolidin-3-yl]methyl]-2,3-dioxo-propyl]carbamoyl]phenyl] carbamate]", "IC50": 4.6}
{"compound": "CNC(=O)C(=O)[C@H](C[C@@H]1C[C@@H](C)NC1=O)NC(=O)c1cc(Cl)ccc1NC(=O)OC1CCC(F)(F)C1", "note": "(stereo partly drawn) [Example 201, (3,3-difluorocyclopentyl) N-[4-chloro-2-[(1S)-3-(methylamino)-1-[[(3S,5R)-5-methyl-2-oxo-pyrrolidin-3-yl]methyl]-2,3-dioxo-propyl]carbamoyl]phenyl] carbamate]", "IC50": 7}
{"compound": "CNC(=O)C(=O)[C@H](C[C@@H]1C[C@@H](C)NC1=O)NC(=O)c1cc(Cl)ccc1NC(=O)C1(CC(F)(F)F)CC1", "note": "[Example 202, 5-chloro-N-[(1S)-3-(methylamino)-1-[[(3S,5R)-5-methyl-2-oxo-pyrrolidin-3-yl]methyl]-2,3-dioxo-propyl]-2-[[1-(2,2,2-trifluoroethyl)cyclopropane-carbonyl]amino]benzamide]", "IC50": 11.9}
{"compound": "CNC(=O)C(=O)[C@H](C[C@@H]1C[C@@H](C)NC1=O)NC(=O)c1cc(C(F)F)ccc1NC(=O)C1(C(F)(F)F)CC1", "note": "[Example 203, 5-(difluoromethyl)-N-[(1S)-3-(methylamino)-1-[[(3S,5R)-5-methyl-2-oxo-pyrrolidin-3-yl]methyl]-2,3-dioxo-propyl]-2-[[1-(trifluoromethyl)cyclopropane-carbonyl]amino]benzamide]", "IC50": 36.6}
{"compound": "C[C@@H]1C[C@@H](C[C@H](NC(=O)c2cc(Cl)ccc2NC(=O)[C@@H]2CN(C)C(=O)O2)C(=O)C(=O)NC2CC2)C(=O)N1", "note": "[Example 204, (5S)-N-[4-chloro-2-[[(1S)-3-(cyclopropylamino)-1-[[(3S,5R)-5-methyl-2-oxo-pyrrolidin-3-yl]methyl]-2,3-dioxo-propyl]carbamoyl]phenyl]-3-methyl-2-oxo-oxazolidine-5-carboxamide]", "IC50": 4.7}
{"compound": "C[C@@H]1C[C@@H](C[C@H](NC(=O)c2cc(Cl)ccc2NC(=O)[C@H]2CN(C)C(=O)O2)C(=O)C(=O)NC2CC2)C(=O)N1", "note": "[Example 205]", "IC50": 6.6}
{"compound": "C[C@@H]1C[C@@H](C[C@H](NC(=O)c2cc(Cl)cc(F)c2NC(=O)C23CC(F)(C2)C3)C(=O)C(=O)NC2CC2)C(=O)N1", "note": "[Example 206]", "IC50": 12.8}
{"compound": "CNC(=O)C(=O)[C@H](C[C@@H]1C[C@@H](C)NC1=O)NC(=O)c1cc(F)ccc1NC(=O)c1ccnc(C(F)(F)F)c1", "note": "[Example 207, N-[4-fluoro-2-[[(1S)-3-(methylamino)-1-[[(3S,5R)-5-methyl-2-oxo-pyrrolidin-3-yl]methyl]-2,3-dioxo-propyl]carbamoyl]phenyl]-2-(trifluoromethyl)pyridine-4-carboxamide]", "IC50": 11.4}
{"compound": "C[C@@H]1C[C@@H](C[C@H](NC(=O)c2cc(Cl)ccc2NC(=O)c2ccnc(C(F)(F)F)c2)C(=O)C(N)=O)C(=O)N1", "note": "[Example 208, N-[2-[[(1S)-3-amino-1-[[(3S,5R)-5-methyl-2-oxo-pyrrolidin-3-yl]methyl]-2,3-dioxo-propyl]carbamoyl]-4-chloro-phenyl]-2-(trifluoromethyl)pyridine-4-carboxamide]", "IC50": 6.9}
{"compound": "C[C@@H]1C[C@@H](C[C@H](NC(=O)c2cc(Cl)ccc2NC(=O)[C@H](C)CC(F)(F)F)C(=O)C(=O)NC2CC2)C(=O)N1", "note": "[Example 209, 5-chloro-N-[(1S)-3-(cyclopropylamino)-1-[[(3S,5R)-5-methyl-2-oxo-pyrrolidin-3-yl]methyl]-2,3-dioxo-propyl]-2-[[(2R)-4,4,4-trifluoro-2-methyl-butanoyl]amino]benzamide]", "IC50": 9.8}
{"compound": "CC(OC(=O)Nc1ccc(Cl)cc1C(=O)N[C@@H](C[C@@H]1C[C@@H](C)NC1=O)C(=O)C(=O)NC1CC1)C(F)(F)F", "note": "(stereo partly drawn) [Example 210, (2,2,2-trifluoro-1-methyl-ethyl) N-[4-chloro-2-[[(1S)-3-(cyclopropylamino)-1-[[(3S,5R)-5-methyl-2-oxo-pyrrolidin-3-yl]methyl]-2,3-dioxo-propyl]carbamoyl]phenyl] carbamate]", "IC50": 7.8}
{"compound": "CC(OC(=O)Nc1ccc(Cl)cc1C(=O)N[C@@H](C[C@@H]1C[C@@H](C)NC1=O)C(=O)C(=O)NC1CC1)C(F)(F)F", "note": "(stereo partly drawn) [Example 211, (2,2,2-trifluoro-1-methyl-ethyl) N-[4-chloro-2-[[(1S)-3-(cyclopropylamino)-1-[[(3S,5R)-5-methyl-2-oxo-pyrrolidin-3-yl]methyl]-2,3-dioxo-propyl]carbamoyl]phenyl] carbamate]", "IC50": 7.3}
{"compound": "C[C@@H]1C[C@@H](C[C@H](NC(=O)c2cc(Cl)ccc2NC(=O)[C@@H]2CN(C)C(=O)N2C)C(=O)C(=O)NC2CC2)C(=O)N1", "note": "[Example 212, (4S)-N-[4-chloro-2-[[(1S)-3-(cyclopropylamino)-1-[[(3S,5R)-5-methyl-2-oxo-pyrrolidin-3-yl]methyl]-2,3-dioxo-propyl]carbamoyl]phenyl]-1,3-dimethyl-2-oxo-imidazolidine-4-carboxamide]", "IC50": 5.6}
{"compound": "C[C@@H]1C[C@@H](C[C@H](NC(=O)c2cc(Cl)cc(F)c2NC(=O)CCC(F)(F)F)C(=O)C(=O)NC2CC2)C(=O)N1", "note": "[Example 213, 5-chloro-N-[(1S)-3-(cyclopropylamino)-1-[[(3S,5R)-5-methyl-2-oxo-pyrrolidin-3-yl]methyl]-2,3-dioxo-propyl]-3-fluoro-2-(4,4,4-trifluorobutanoylamino) benzamide]", "IC50": 15.4}
{"compound": "CNC(=O)C(=O)[C@H](C[C@@H]1C[C@@H](C)NC1=O)NC(=O)c1cc(Cl)c(F)cc1NC(=O)C1(CC(F)(F)F)CC1", "note": "[Example 214, 5-chloro-4-fluoro-N-[(1S)-3-(methylamino)-1-[[(3S,5R)-5-methyl-2-oxo-pyrrolidin-3-yl]methyl]-2,3-dioxo-propyl]-2-[[1-(2,2,2-trifluoroethyl)cyclopropane-carbonyl]amino]benzamide]", "IC50": 6.8}
{"compound": "CNC(=O)C(=O)[C@H](C[C@@H]1C[C@@H](C)NC1=O)NC(=O)c1cc(Cl)ccc1NC(=O)c1cnc(C(F)(F)F)nc1", "note": "[Example 215, N-[4-chloro-2-[[(1S)-3-(methylamino)-1-[[(3S,5R)-5-methyl-2-oxo-pyrrolidin-3-yl]methyl]-2,3-dioxo-propyl]carbamoyl]phenyl]-2-(trifluoromethyl)pyrimidine-5-carboxamide]", "IC50": 10.1}
{"compound": "CNC(=O)C(=O)[C@H](C[C@@H]1C[C@@H](C)NC1=O)NC(=O)c1cc(Cl)ccc1NC(=O)c1nccc(C(F)(F)F)n1", "note": "[Example 216]", "IC50": 9.6}
{"compound": "CNC(=O)C(=O)[C@H](C[C@@H]1C[C@@H](C)NC1=O)NC(=O)c1cc(Cl)ccc1NC(=O)c1ncc(C(F)(F)F)cn1", "note": "[Example 217, N-[4-chloro-2-[[(1S)-3-(methylamino)-1-[[(3S,5R)-5-methyl-2-oxo-pyrrolidin-3-yl]methyl]-2,3-dioxo-propyl]carbamoyl]phenyl]-5-(trifluoromethyl)pyrimidine-2-carboxamide]", "IC50": 6.7}
{"compound": "CNC(=O)C(=O)[C@H](C[C@@H]1C[C@@H](C)NC1=O)NC(=O)c1cc(Cl)ccc1NC(=O)OCC1CCCC(F)(F)C1", "note": "(stereo partly drawn) [Example 218, (3,3-difluorocyclohexyl)methyl N-[4-chloro-2-[[(1S)-3-(methylamino)-1-[[(3S,5R)-5-methyl-2-oxo-pyrrolidin-3-yl]methyl]-2,3-dioxo-propyl]carbamoyl]phenyl] carbamate]", "IC50": 6.8}
{"compound": "CNC(=O)C(=O)[C@H](C[C@@H]1C[C@@H](C)NC1=O)NC(=O)c1cc(Cl)ccc1NC(=O)OCC1CCCC(F)(F)C1", "note": "(stereo partly drawn) [Example 219, (3,3-difluorocyclohexyl)methyl N-[4-chloro-2-[[(1S)-3-(methylamino)-1-[(3S,5R)-5-methyl-2-oxo-pyrrolidin-3-yl]methyl]-2,3-dioxo-propyl]carbamoyl]phenyl] carbamate]", "IC50": 7.1}
{"compound": "C[C@@H]1C[C@@H](C[C@H](NC(=O)c2cc(C(F)F)ccc2NC(=O)C2(C(F)(F)F)CC2)C(=O)C(=O)NC2CC2)C(=O)N1", "note": "[Example 220, N-[(1S)-3-(cyclopropylamino)-1-[[(3S,5R)-5-methyl-2-oxo-pyrrolidin-3-yl]methyl]-2,3-dioxo-propyl]-5-(difluoromethyl)-2-[[1-(trifluoromethyl)cyclopropane-carbonyl]amino]benzamide]", "IC50": 60.3}
{"compound": "CNC(=O)C(=O)[C@H](C[C@@H]1C[C@@H](C)NC1=O)NC(=O)c1cc(Cl)ccc1NC(=O)[C@@H](N(C)C(=O)OC)C(C)(C)C", "note": "[Example 221]", "IC50": 41.9}
{"compound": "CNC(=O)C(=O)[C@H](C[C@@H]1C[C@@H](C)NC1=O)NC(=O)c1cc(C(F)F)ccc1NC(=O)c1ccnc(C(F)(F)F)c1", "note": "[Example 222, N-[4-(difluoromethyl)-2-[[(1S)-3-(methylamino)-1-[[(3S,5R)-5-methyl-2-oxo-pyrrolidin-3-yl]methyl]-2,3-dioxo-propyl]carbamoyl]phenyl]-2-(trifluoromethyl)pyridine-4-carboxamide]", "IC50": 5.2}
{"compound": "CNC(=O)C(=O)[C@H](C[C@@H]1C[C@@H](C)NC1=O)NC(=O)c1cc(Cl)c(F)cc1NC(=O)c1ccc(C(F)(F)F)nc1", "note": "[Example 223, N-[4-chloro-5-fluoro-2-[[(1S)-3-(methylamino)-1-[[(3S,5R)-5-methyl-2-oxo-pyrrolidin-3-yl]methyl]-2,3-dioxo-propyl]carbamoyl]phenyl]-6-(trifluoromethyl)pyridine-3-carboxamide]", "IC50": 9}
{"compound": "CNC(=O)C(=O)[C@H](C[C@@H]1C[C@@H](C)NC1=O)NC(=O)c1cc(Cl)cc(F)c1NC(=O)c1ccnc(C(F)(F)F)c1", "note": "[Example 224, N-[4-chloro-2-fluoro-6-[[(1S)-3-(methylamino)-1-[[(3S,5R)-5-methyl-2-oxo-pyrrolidin-3-yl]methyl]-2,3-dioxo-propyl]carbamoyl]phenyl]-2-(trifluoromethyl)pyridine-4-carboxamide]", "IC50": 7.2}
